Measured values as given in patent publication US20170319483A1, “METHOD FOR PRODUCING POROUS PARTICLE” (National Institute for Materials Science, priority 2014, published 2017).

Assay: Theophylline release experiment in pH 7 phosphate buffer
Assay type: physicochemical
Settings: FIG. 24
Protocol: First, the porous particles containing theophylline of Application Examples of 4-1 to 4-4 were dispersed in a phosphate buffer solution of pH 7 at 200 mg/100 mL.
Next, the solution was collected over time, filtered by a filter, and thereafter analyzed by high-performance liquid chromatography, and the concentration of theophylline in the solution was measured.

Cn1c(=O)c2[nH]cnc2n(C)c1=O [theophylline alone, theophylline]
Theophylline release / dissolution behaviour: whole amount was dissolved instantaneously
